Data on 8 compounds can be found in ChEMBL document CHEMBL5236588 (J Med Chem, 2022).

The structures appear in SMILES notation. pIC50, pKi: −log10 of the molar value. Residues, ends and D or L forms follow the SMILES beside them.

A short description of test [1]: Inhibition of FXIIa (unknown origin) using Ac-QRFR-pNA as substrate measured at 30 sec interval by microplate reader assay. Set-up: species or system Homo sapiens.
The species named for another test is Homo sapiens. The test is described as follows: Potency index, ratio of M8 Ki to test compound Ki for inhibition of FXIIa (unknown origin).
A short description of test [2]: Inhibition of human FXa using Z-Pyr-GR-MCA as substrate.
Another test concerns the target Plasminogen (Homo sapiens, UniProt P00747). The test is described as follows: Inhibition of human plasmin using Ac-RM(O2)YR-pNA as substrate.
Test [3] can be described thus: Inhibition of human cationic trypsin using Boc-VPR-MCA as susbtrate.

Chain of Plasminogen (P00747 97-580 limits assumed): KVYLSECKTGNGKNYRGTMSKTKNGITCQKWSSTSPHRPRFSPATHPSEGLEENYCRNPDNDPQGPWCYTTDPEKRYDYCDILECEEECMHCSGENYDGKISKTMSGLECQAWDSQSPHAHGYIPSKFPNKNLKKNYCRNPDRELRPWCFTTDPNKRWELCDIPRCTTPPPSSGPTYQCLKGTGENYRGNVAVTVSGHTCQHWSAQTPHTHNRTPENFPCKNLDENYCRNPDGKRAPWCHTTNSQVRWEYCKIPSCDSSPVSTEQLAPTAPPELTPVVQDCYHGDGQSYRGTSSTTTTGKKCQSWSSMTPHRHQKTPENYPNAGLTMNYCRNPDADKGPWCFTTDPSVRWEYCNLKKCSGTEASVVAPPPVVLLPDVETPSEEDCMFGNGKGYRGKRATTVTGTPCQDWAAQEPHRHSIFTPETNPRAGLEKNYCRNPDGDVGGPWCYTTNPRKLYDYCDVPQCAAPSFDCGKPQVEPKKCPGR
Chain of Plasminogen (P00747 581-810 limits assumed): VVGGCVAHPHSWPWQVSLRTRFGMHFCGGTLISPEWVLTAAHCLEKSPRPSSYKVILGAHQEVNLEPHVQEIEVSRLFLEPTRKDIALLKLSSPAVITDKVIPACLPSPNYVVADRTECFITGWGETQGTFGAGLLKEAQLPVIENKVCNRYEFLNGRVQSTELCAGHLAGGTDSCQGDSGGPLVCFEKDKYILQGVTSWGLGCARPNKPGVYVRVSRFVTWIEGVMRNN

As for `CC[C@H](C)[C@@H]1NC(=O)[C@H](CCCNC(=N)N)NC(=O)[C@H](Cc2ccccc2)NC(=O)[C@@H]2CSSC[C@H]3NC(=O)[C@H](C)NC(=O)CNC(=O)[C@@H]4CCCN4C(=O)[C@@H]4CSSC[C@H](NC(=O)[C@H](Cc5ccc(O)cc5)NC(=O)CNC(=O)[C@H](CC(N)=O)NC(=O)CNC(=O)[C@H](CCCNC(=N)N)NC(=O)[C@H](CSSC[C@H](NC(=O)[C@H](CCCCN)NC(=O)[C@H](CCCCN)NC(=O)[C@H](CC(C)C)NC1=O)C(=O)N[C@@H](CCCNC(=N)N)C(=O)N[C@@H](CCCNC(=N)N)C(=O)N[C@@H](CC(=O)O)C(=O)N[C@@H](CO)C(=O)N[C@@H](CC(=O)O)C(=O)N4)NC(=O)[C@H]([C@@H](C)CC)NC3=O)C(=O)NCC(=O)N[C@@H](CO)C(=O)NCC(=O)N[C@@H](CCC(N)=O)C(=O)N2`, the pKi in test [1] was 6.81. Besides, the Ratio Ki in the test listed under Homo sapiens came out at 1.2.
Turning to `CC[C@H](C)[C@@H]1NC(=O)[C@@H]2CSSC[C@H](NC(=O)[C@H](CCC(N)=O)NC(=O)CNC(=O)CN)C(=O)N[C@@H](Cc3ccccc3)C(=O)N[C@@H](CCCNC(=N)N)C(=O)N[C@@H]([C@@H](C)CC)C(=O)N[C@@H](CC(C)C)C(=O)N[C@@H](CCCCN)C(=O)N[C@@H](CCCCN)C(=O)N[C@@H]3CSSC[C@H](NC1=O)C(=O)N[C@@H](CCCNC(=N)N)C(=O)NCC(=O)N[C@@H](CC(N)=O)C(=O)NCC(=O)N[C@@H](Cc1ccc(O)cc1)C(=O)N[C@H](C(=O)NCC(=O)N[C@@H](C)C(=O)O)CSSC[C@H](NC(=O)[C@H](CC(=O)O)NC(=O)[C@H](CO)NC(=O)[C@H](CC(=O)O)NC(=O)[C@H](CCCNC(=N)N)NC(=O)[C@H](CCCNC(=N)N)NC3=O)C(=O)N1CCC[C@H]1C(=O)NCC(=O)N[C@@H](C)C(=O)N2`, the pKi in test [1] is 6.80.
Turning to `CC[C@H](C)[C@@H]1NC(=O)[C@@H]2CSSC[C@@H]3NC(=O)[C@H](CCC(N)=O)NC(=O)CNC(=O)CNC(=O)[C@H](CC(=O)O)NC(=O)[C@H](CO)NC(=O)CNC(=O)[C@@H]4CSSC[C@H](NC(=O)[C@H](CC(=O)O)NC(=O)[C@H](CO)NC(=O)[C@H](CC(=O)O)NC(=O)[C@H](CCCNC(=N)N)NC(=O)[C@H](CCCNC(=N)N)NC(=O)[C@H](CSSC[C@H](NC1=O)C(=O)N[C@@H](CCCNC(=N)N)C(=O)NCC(=O)N[C@@H](CC(N)=O)C(=O)NCC(=O)N[C@@H](Cc1ccc(O)cc1)C(=O)N4)NC(=O)[C@H](CCCCN)NC(=O)[C@H](CCCCN)NC(=O)[C@H](CC(C)C)NC(=O)[C@H]([C@@H](C)CC)NC(=O)[C@H](CCCNC(=N)N)NC(=O)[C@H](Cc1ccccc1)NC3=O)C(=O)N1CCC[C@H]1C(=O)NCC(=O)N[C@@H](C)C(=O)N2` (HELM PEPTIDE1{A.C.I.C.R.G.N.G.Y.C.G.S.D.G.G.Q.C.F.R.I.L.K.K.C.R.R.D.S.D.C.P.G}$PEPTIDE1,PEPTIDE1,2:R3-17:R3|PEPTIDE1,PEPTIDE1,4:R3-24:R3|PEPTIDE1,PEPTIDE1,10:R3-30:R3|PEPTIDE1,PEPTIDE1,1:R1-32:R2$$$V2.0), the pKi in test [1] is 7.04. Moreover, the Ratio Ki in the test listed under Homo sapiens is 2.1.
The like results for `CC[C@H](C)[C@@H]1NC(=O)[C@@H]2CSSC[C@@H]3NC(=O)[C@H](CCC(N)=O)NC(=O)CNC(=O)CNC(=O)CNC(=O)[C@H](CO)NC(=O)CNC(=O)[C@@H]4CSSC[C@H](NC(=O)[C@H](CC(=O)O)NC(=O)[C@H](CO)NC(=O)[C@H](CC(=O)O)NC(=O)[C@H](CCCNC(=N)N)NC(=O)[C@H](CCCNC(=N)N)NC(=O)[C@H](CSSC[C@H](NC1=O)C(=O)N[C@@H](CCCNC(=N)N)C(=O)NCC(=O)N[C@@H](CC(N)=O)C(=O)NCC(=O)N[C@@H](Cc1ccc(O)cc1)C(=O)N4)NC(=O)[C@H](CCCCN)NC(=O)[C@H](CCCCN)NC(=O)[C@H](CC(C)C)NC(=O)[C@H]([C@@H](C)CC)NC(=O)[C@H](CCCNC(=N)N)NC(=O)[C@H](Cc1ccccc1)NC3=O)C(=O)N1CCC[C@H]1C(=O)NCC(=O)N[C@@H](C)C(=O)N2` (HELM PEPTIDE1{A.C.I.C.R.G.N.G.Y.C.G.S.G.G.G.Q.C.F.R.I.L.K.K.C.R.R.D.S.D.C.P.G}$PEPTIDE1,PEPTIDE1,2:R3-17:R3|PEPTIDE1,PEPTIDE1,4:R3-24:R3|PEPTIDE1,PEPTIDE1,10:R3-30:R3|PEPTIDE1,PEPTIDE1,1:R1-32:R2$$$V2.0) were, in that order, 7.12 and 2.6.
The matching figures for `CC[C@H](C)[C@@H]1NC(=O)[C@@H]2CSSC[C@@H]3NC(=O)[C@H](CCC(N)=O)NC(=O)CNC(=O)CNC(=O)[C@H](CO)NC(=O)CNC(=O)[C@H](CO)NC(=O)CNC(=O)[C@@H]4CSSC[C@H](NC(=O)[C@H](CC(=O)O)NC(=O)[C@H](CO)NC(=O)[C@H](CC(=O)O)NC(=O)[C@H](CCCNC(=N)N)NC(=O)[C@H](CCCNC(=N)N)NC(=O)[C@H](CSSC[C@H](NC1=O)C(=O)N[C@@H](CCCNC(=N)N)C(=O)NCC(=O)N[C@@H](CC(N)=O)C(=O)NCC(=O)N[C@@H](Cc1ccc(O)cc1)C(=O)N4)NC(=O)[C@H](CCCCN)NC(=O)[C@H](CCCCN)NC(=O)[C@H](CC(C)C)NC(=O)[C@H]([C@@H](C)CC)NC(=O)[C@H](CCCNC(=N)N)NC(=O)[C@H](Cc1ccccc1)NC3=O)C(=O)N1CCC[C@H]1C(=O)NCC(=O)N[C@@H](C)C(=O)N2` (HELM PEPTIDE1{A.C.I.C.R.G.N.G.Y.C.G.S.G.S.G.G.Q.C.F.R.I.L.K.K.C.R.R.D.S.D.C.P.G}$PEPTIDE1,PEPTIDE1,2:R3-18:R3|PEPTIDE1,PEPTIDE1,4:R3-25:R3|PEPTIDE1,PEPTIDE1,10:R3-31:R3|PEPTIDE1,PEPTIDE1,1:R1-33:R2$$$V2.0): 6.85 and 1.4.
The matching figures for `CC[C@H](C)[C@@H]1NC(=O)[C@@H]2CSSC[C@@H]3NC(=O)[C@H](CCC(N)=O)NC(=O)CNC(=O)CNC(=O)[C@H](CO)NC(=O)[C@H](CO)NC(=O)CNC(=O)[C@@H]4CSSC[C@H](NC(=O)[C@H](CC(=O)O)NC(=O)[C@H](CO)NC(=O)[C@H](CC(=O)O)NC(=O)[C@H](CCCNC(=N)N)NC(=O)[C@H](CCCNC(=N)N)NC(=O)[C@H](CSSC[C@H](NC1=O)C(=O)N[C@@H](CCCNC(=N)N)C(=O)NCC(=O)N[C@@H](CC(N)=O)C(=O)NCC(=O)N[C@@H](Cc1ccc(O)cc1)C(=O)N4)NC(=O)[C@H](CCCCN)NC(=O)[C@H](CCCCN)NC(=O)[C@H](CC(C)C)NC(=O)[C@H]([C@@H](C)CC)NC(=O)[C@H](CCCNC(=N)N)NC(=O)[C@H](Cc1ccccc1)NC3=O)C(=O)N1CCC[C@H]1C(=O)NCC(=O)N[C@@H](C)C(=O)N2` (HELM PEPTIDE1{A.C.I.C.R.G.N.G.Y.C.G.S.S.G.G.Q.C.F.R.I.L.K.K.C.R.R.D.S.D.C.P.G}$PEPTIDE1,PEPTIDE1,2:R3-17:R3|PEPTIDE1,PEPTIDE1,4:R3-24:R3|PEPTIDE1,PEPTIDE1,10:R3-30:R3|PEPTIDE1,PEPTIDE1,1:R1-32:R2$$$V2.0): 6.88 and 1.5.
In turn, `CC[C@H](C)[C@@H]1NC(=O)[C@@H]2CSSC[C@H](NC(=O)[C@H](CCC(N)=O)NC(=O)CNC(=O)CN)C(=O)N[C@@H](Cc3ccccc3)C(=O)N[C@@H](CCCNC(=N)N)C(=O)N[C@@H]([C@@H](C)CC)C(=O)N[C@@H](CC(C)C)C(=O)N[C@@H](CCCCN)C(=O)N[C@@H](CCCCN)C(=O)N[C@H]3CSSC[C@H](NC1=O)C(=O)N[C@@H](CCCNC(=N)N)C(=O)NCC(=O)N[C@@H](CC(N)=O)C(=O)NCC(=O)N[C@@H](Cc1ccc(O)cc1)C(=O)N[C@H](C(=O)N[C@@H](C)C(=O)N[C@@H](CO)C(=O)O)CSSC[C@H](NC(=O)[C@H](CC(=O)O)NC(=O)[C@H](CO)NC(=O)[C@H](CC(=O)O)NC(=O)[C@H](CCCNC(=N)N)NC(=O)[C@H](CCCNC(=N)N)NC3=O)C(=O)N1CCC[C@H]1C(=O)NCC(=O)N[C@@H](C)C(=O)N2` (HELM PEPTIDE1{G.G.Q.C.F.R.I.L.K.K.C.R.R.D.S.D.C.P.G.A.C.I.C.R.G.N.G.Y.C.A.S}$PEPTIDE1,PEPTIDE1,4:R3-21:R3|PEPTIDE1,PEPTIDE1,11:R3-23:R3|PEPTIDE1,PEPTIDE1,17:R3-29:R3$$$V2.0) gave a pKi in test [1] of 6.97. In addition, the Ratio Ki in the test filed under Homo sapiens was -4.2.
Take `CC[C@H](C)[C@@H]1NC(=O)[C@@H]2CSSC[C@H](NC(=O)[C@H](CCC(N)=O)NC(=O)CNC(=O)CN)C(=O)N[C@@H](Cc3ccccc3)C(=O)N[C@@H](CCCNC(=N)N)C(=O)N[C@@H]([C@@H](C)CC)C(=O)N[C@@H](CC(C)C)C(=O)N[C@@H](CCCCN)C(=O)N[C@@H](CCCCN)C(=O)N[C@H]3CSSC[C@H](NC1=O)C(=O)N[C@@H](CCCNC(=N)N)C(=O)NCC(=O)N[C@@H](CC(N)=O)C(=O)NCC(=O)N[C@@H](Cc1ccc(O)cc1)C(=O)N[C@H](C(=O)NCC(=O)N[C@@H](CO)C(=O)O)CSSC[C@H](NC(=O)[C@H](CC(=O)O)NC(=O)[C@H](CO)NC(=O)[C@H](CC(=O)O)NC(=O)[C@H](CCCNC(=N)N)NC(=O)[C@H](CCCNC(=N)N)NC3=O)C(=O)N1CCC[C@H]1C(=O)NCC(=O)N[C@@H](C)C(=O)N2` (HELM PEPTIDE1{G.G.Q.C.F.R.I.L.K.K.C.R.R.D.S.D.C.P.G.A.C.I.C.R.G.N.G.Y.C.G.S}$PEPTIDE1,PEPTIDE1,4:R3-21:R3|PEPTIDE1,PEPTIDE1,11:R3-23:R3|PEPTIDE1,PEPTIDE1,17:R3-29:R3$$$V2.0): the pIC50 in test [2] was less than 5.30. Besides, the results for the pKi (on Plasminogen; in test [1]; in test [3]) were 6.55, 7.60 and 6.80, respectively.
